# Test results published in patent EP2433624B1, “Use of buparvaquone for controlling mites parasitising honeybees” (Bimeda International Pharmaceuticals Limited, priority 2010, dated 2012).
# “And” between values parts separate entries of the source, which are not always exact repeats. Equal entries are not always repeated.
# Legend:
# Varroa mites = assay: Efficacy of BPQ B against Varroa mites on honeybees sprayed with an aqueous solution; type: in vivo; settings: summary statement
# Experimental: (§1) Example 7 - Toxicity of BPQ B to Varroa mites on honeybees when sprayed with an aqueous solution of the active ingredient
# To estimate the percentage efficacy of BPQ B at different concentrations when sprayed as an aqueous solution onto adult bees
# (§2) A total of 20 newly emerged Varroa infested bees were placed in hoarding cages. The cages were prepared as described in Section 1.0, except that the air vents were reduced in size using parafilm to prevent the Varroa mites escaping during the test period. The mean(±se) number of mites per 20 bees was estimated prior to commencement and an additional 10 mites per cage were added. Mites were collected and introduced as described above. The treatment solution was made by dissolving BPQ B in solvent, followed by two aqueous serial dilutions producing a concentration of 500µg/mL and 5µg/mL. From the latter, further serial dilutions were carried in water producing the following concentrations: • 0.5µg/mL. (C1-C3) • 0.05µg/mL. (D1-D3) • 0.005µg/mL. (E1-E3) • 0.0005µg/mL. (F1-F3) • 0.00005µg/mL (G1-G3)
# (§3) Three replicates were established at each concentration plus a control group which were sprayed with water only. All test groups were fed 10mL of 1:1 sucrose:water solution and placed in the incubator at 32°C and monitored on a daily basis for the number of mites and number of bees knocked down. At the end of five day treatment period, the percentage efficacy of the treatment was estimated by treating bees in all cages with Apistan. % efficacy = mites knocked from treatment/total mites (treatment+Apistan)*100 [formula]
# honeybees = assay: Survival of bees sprayed with aqueous solutions of BPQ; type: in vivo, Apis mellifera; settings: 20 bees per cage
# Experimental: as §1, §2, §3
# [1] = 0.00005µg/mL (g1-g3) aqueous solution sprayed
# [2] = 0.0005µg/mL (f1-f3) aqueous solution sprayed
# [3] = 0.005µg/mL (e1-e3) aqueous solution sprayed
# [4] = 0.05µg/mL (d1-d3) aqueous solution sprayed
# [5] = 0.5µg/mL (c1-c3) aqueous solution sprayed
compound,measurement,setting,value
"CC(C)(C)[C@H]1CC[C@H](CC2=C(O)C(=O)c3ccccc3C2=O)CC1 [BPQ, buparvaquone]","effective, topical application",Varroa mites,~40%
same,Bees remaining,honeybees; [1],18 and 17 and 20
same,"Survival rate on bees, Day 1",honeybees; [1],20
same,"Survival rate on bees, Day 2",honeybees; [1],19 and 20
same,"Survival rate on bees, Day 3",honeybees; [1],19 and 17 and 20
same,"Survival rate on bees, Day 4",honeybees; [1],19 and 17 and 20
same,"Survival rate on bees, Day 5",honeybees; [1],19 and 17 and 20
same,"Survival rate on bees, Day 6",honeybees; [1],18 and 17 and 20
same,Bees remaining,honeybees; [2],20 and 19 and 18
same,"Survival rate on bees, Day 1",honeybees; [2],20
same,"Survival rate on bees, Day 2",honeybees; [2],20 and 19 and 18
same,"Survival rate on bees, Day 3",honeybees; [2],20 and 19 and 18
same,"Survival rate on bees, Day 4",honeybees; [2],20 and 19 and 18
same,"Survival rate on bees, Day 5",honeybees; [2],20 and 19 and 18
same,"Survival rate on bees, Day 6",honeybees; [2],20 and 19 and 18
same,Bees remaining,honeybees; [3],19 and 20
same,"Survival rate on bees, Day 1",honeybees; [3],20
same,"Survival rate on bees, Day 2",honeybees; [3],20
same,"Survival rate on bees, Day 3",honeybees; [3],19 and 20
same,"Survival rate on bees, Day 4",honeybees; [3],19 and 20
same,"Survival rate on bees, Day 5",honeybees; [3],19 and 20
same,"Survival rate on bees, Day 6",honeybees; [3],19 and 20
same,Bees remaining,honeybees; [4],20 and 19
same,"Survival rate on bees, Day 1",honeybees; [4],20
same,"Survival rate on bees, Day 2",honeybees; [4],20 and 19
same,"Survival rate on bees, Day 3",honeybees; [4],20 and 19
same,"Survival rate on bees, Day 4",honeybees; [4],20 and 19
same,"Survival rate on bees, Day 5",honeybees; [4],20 and 19
same,"Survival rate on bees, Day 6",honeybees; [4],20 and 19
same,Bees remaining,honeybees; [5],19 and 20
same,"Survival rate on bees, Day 1",honeybees; [5],20
same,"Survival rate on bees, Day 2",honeybees; [5],20 and 19
same,"Survival rate on bees, Day 3",honeybees; [5],20 and 19
same,"Survival rate on bees, Day 4",honeybees; [5],19 and 20
same,"Survival rate on bees, Day 5",honeybees; [5],19 and 20
same,"Survival rate on bees, Day 6",honeybees; [5],19 and 20
